Reference: ChEMBL document CHEMBL5230103, “Hydroxamic acid hybrids as the potential anticancer agents: An Overview” (Eur J Med Chem, 2020)
One block for each compound: values may come before it.

Columns and labels:
[1] = Cytotoxicity against human U87 cells assessed as inhibition of cell growth by MTT assay; type: functional, cell-based, U-87MG ATCC; settings: U-87 MG
T98G = assay: Cytotoxicity against human T98G cells assessed as inhibition of cell growth by MTT assay; type: functional, cell-based
U-251 = assay: Cytotoxicity against human U-251 cells assessed as inhibition of cell growth by MTT assay; type: functional, cell-based
LNCaP = assay: Cytotoxicity against human LNCaP cells assessed as inhibition of cell growth by MTT assay; type: functional, cell-based
K562 [2] = assay: Cytotoxicity against human K562 cells assessed as inhibition of cell growth by MTT assay; type: functional, cell-based
MOLT-4 [3] = assay: Cytotoxicity against human MOLT-4 cells assessed as inhibition of cell growth by MTT assay; type: functional, cell-based
HT-29 = assay: Cytotoxicity against human HT-29 cells assessed as inhibition of cell growth by MTT assay; type: functional, cell-based
[4] = molecular target: cGMP-specific 3',5'-cyclic phosphodiesterase (Homo sapiens, UniProt O76074); assay: Inhibition of PDE5 (unknown origin)
Histone deacetylase = assay: Inhibition of HDAC (unknown origin); type: protein assay, Homo sapiens
HCT-116 = assay: Cytotoxicity against human HCT-116 cells assessed as inhibition of cell growth by MTT assay; type: functional, cell-based
PC-3 [5] = assay: Cytotoxicity against human PC-3 cells assessed as inhibition of cell growth by MTT assay; type: functional, cell-based
SW-620 = assay: Cytotoxicity against human SW620 cells assessed as inhibition of cell growth by MTT assay; type: functional, cell-based
T47D = assay: Cytotoxicity against human T47D cells assessed as inhibition of cell growth by MTT assay; type: functional, cell-based
AGS = assay: Cytotoxicity against human AGS cells assessed as inhibition of cell growth by MTT assay; type: functional, cell-based
SUP-T1 = assay: Cytotoxicity against human SUP-T1 cells assessed as inhibition of cell growth by MTT assay; type: functional, cell-based
PLC-PRF-5 = assay: Cytotoxicity against human PLC-PRF-5 cells assessed as inhibition of cell growth by SRB assay; type: functional, cell-based
SK-HEP1 = assay: Cytotoxicity against human SK-HEP1 cells assessed as inhibition of cell growth by SRB assay; type: functional, cell-based
Ramos = assay: Cytotoxicity against human Ramos cells assessed as inhibition of cell growth by SRB assay; type: functional, cell-based
MCF7 = assay: Cytotoxicity against human MCF7 cells assessed as inhibition of cell growth by SRB assay; type: functional, cell-based
[6] = Toxicity in BALB/c mouse assessed as maximum tolerated dose; settings: in vivo
SNU-398 = assay: Cytotoxicity against human SNU-398 cells assessed as inhibition of cell growth by SRB assay; type: functional, cell-based
PC-3 [7] = assay: Cytotoxicity against human PC-3 cells assessed as inhibition of cell growth by SRB assay; type: functional, cell-based
Raji = assay: Cytotoxicity against human Raji cells assessed as inhibition of cell growth by SRB assay; type: functional, cell-based
K562 [8] = assay: Cytotoxicity against human K562 cells assessed as inhibition of cell growth by SRB assay; type: functional, cell-based
MOLT-4 [9] = assay: Cytotoxicity against human MOLT-4 cells assessed as inhibition of cell growth by SRB assay; type: functional, cell-based
SU-DHL-6 = assay: Cytotoxicity against human SU-DHL-6 cells assessed as inhibition of cell growth by SRB assay; type: functional, cell-based
[10] = Oral bioavailability in BALB/c mouse at 200 mg/kg; type: ADME, organism-based; settings: in vivo
MV4-11 = assay: Cytotoxicity against human MV4-11 cells assessed as inhibition of cell growth by SRB assay; type: functional, cell-based
SNU-387 = assay: Cytotoxicity against human SNU-387 cells assessed as inhibition of cell growth by SRB assay; type: functional, cell-based
Huh-7 = assay: Cytotoxicity against human Huh-7 cells assessed as inhibition of cell growth by SRB assay; type: functional, cell-based
HepG2 = assay: Cytotoxicity against human HepG2 cells assessed as inhibition of cell growth by SRB assay; type: functional, cell-based

SMILES: O=C(CCCCCNC(=O)c1cc(O)c2c(c1)C(=O)c1cccc(O)c1C2=O)NO
IC50 [1]: 5500 nM | IC50 (T98G): 5500 nM | IC50 (U-251): 5500 nM

IC50 [4]: 46.3 nM | IC50 (Histone deacetylase): 14.5 nM
SMILES: O=C(CCCCCN1CCN2[C@H](Cc3c([nH]c4ccccc34)[C@H]2c2ccc(Br)cc2)C1)NO
IC50 (LNCaP): 1500 nM | IC50 (K562 [2]): 1500 nM | IC50 (MOLT-4 [3]): 1500 nM | IC50 (HT-29): 1500 nM | IC50 (HCT-116): 1500 nM | IC50 (PC-3 [5]): 1500 nM | IC50 (SW-620): 1500 nM | IC50 (T47D): 1500 nM | IC50 (AGS): 1500 nM | IC50 (SUP-T1): 1500 nM

SMILES: CC(C)n1cnc2c(-c3cccc(OCCCCC(=O)NO)c3)nc(N3CCOCC3)nc21
IC50 (PLC-PRF-5): 160 nM | IC50 (SK-HEP1): 160 nM | IC50 (Ramos): 160 nM | IC50 (MCF7): 160 nM | IC50 (Histone deacetylase): 35 nM | MTD [6]: 200 mg/kg | IC50 (SNU-398): 160 nM | IC50 (PC-3 [7]): 160 nM | IC50 (Raji): 160 nM | IC50 (K562 [8]): 160 nM | IC50 (MOLT-4 [9]): 160 nM | IC50 (SU-DHL-6): 160 nM | bioavailability [10]: 62% | IC50 (MV4-11): 160 nM | IC50 (SNU-387): 160 nM | IC50 (Huh-7): 160 nM | IC50 (HepG2): 160 nM
